{
  "source": "patent US10568819B2",
  "about": "“Skin enhancing compositions and methods” (Sytheon Limited, priority 2016, dated 2020)",
  "key": {"[1]": {"system": "Keratinocytes", "experiment": "UVA- and UVB-induced formation of immediate CPDs (iCPDs) in keratinocytes", "format": "cell-based", "settings": "25 μg/ml", "experimental": "Given the significance of CPDs in skin aging and damage, a study was undertaken to determine whether compounds of the present invention have the ability to directly protect the genome of skin cells from the mutagenic effect of UV light as evidenced by CPDs inhibition. The study was conducted in accordance with the method described by Mitchell et. al. [Mitchell, D L, The relative cytotoxicity of (6-4) photoproducts and cyclobutane dimers in mammalian cells. Photochem Photobiol, 48(1):51-57, 1988)] pursuant to which UVA- and UVB-induced formation of immediate CPDs (iCPDs) were determined."}, "[2]": {"system": "TNS2", "experiment": "DNA microarray gene expression, TNS2", "format": "cell-based", "from_the_text": "(§1) In light of the efficacy of the aryl alkanones ire addressing many of the molecular/biomolecular processes damaged by UV exposure, a study was undertaken to assess whether these compounds would also be effective in addressing symptoms associated with non-UV induced skin aging including chronological aging as well as disease conditions that likewise adversely affect skin processes. The studies conducted involves DNA microarray, PCR array, cell culture, enzyme inhibitory activity."}, "[3]": {"system": "VCAN", "experiment": "DNA microarray gene expression, VCAN", "format": "cell-based", "from_the_text": "as §1"}, "[4]": {"system": "ITGA4", "experiment": "DNA microarray gene expression, ITGA4", "format": "cell-based", "from_the_text": "as §1"}, "[5]": {"system": "TIMP2", "experiment": "DNA microarray gene expression, TIMP2", "format": "cell-based", "from_the_text": "as §1"}, "[6]": {"system": "COL5A1", "experiment": "PCR array gene expression, COL5A1", "format": "cell-based", "from_the_text": "as §1"}, "[7]": {"system": "ITGA1", "experiment": "PCR array gene expression, ITGA1", "format": "cell-based", "from_the_text": "as §1"}, "[8]": {"system": "ITGB3", "experiment": "PCR array gene expression, ITGB3", "format": "cell-based", "from_the_text": "as §1"}, "[9]": {"system": "Collagen type 1", "experiment": "Collagen 1 boosting in human dermal fibroblasts", "format": "cell-based", "settings": "HDF, incubation time of 6 days", "experimental": "(§2) In this study, an investigation was performed in relation to the ability, if any, of the aryl alkanones to boost the production of Collagens 1, 3 and 4 proteins. […] In this study, the cells used were human dermal fibroblasts (HDF), passage 12 (Cell Applications, San Diego, Calif.) which underwent an incubation time of 6 days."}, "[10]": {"system": "Collagen type 4", "experiment": "Collagen 4 boosting in human dermal fibroblasts", "format": "cell-based", "settings": "HDF, incubation time of 6 days", "experimental": "as §2"}, "[11]": {"target": "T1, MMP-1 enzyme (Homo sapiens, UniProt P03956)", "T1 construct": "purchased Anaspec", "T1 sequence (P03956 100-469, species assumed)": "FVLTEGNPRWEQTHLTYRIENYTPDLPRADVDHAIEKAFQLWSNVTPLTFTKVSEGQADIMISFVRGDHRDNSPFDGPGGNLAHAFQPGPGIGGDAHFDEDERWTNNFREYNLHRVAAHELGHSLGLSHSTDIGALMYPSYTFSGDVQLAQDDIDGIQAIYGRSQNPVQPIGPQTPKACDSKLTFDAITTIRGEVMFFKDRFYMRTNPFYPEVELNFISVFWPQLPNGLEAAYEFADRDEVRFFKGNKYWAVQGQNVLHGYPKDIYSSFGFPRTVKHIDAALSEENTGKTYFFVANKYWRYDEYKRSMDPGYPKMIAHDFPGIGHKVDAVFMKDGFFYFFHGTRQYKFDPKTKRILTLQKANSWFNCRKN", "experiment": "MMP-1 inhibition", "format": "biochemical", "settings": "read-out: Inhibitory concentration (IC50), MMP-1", "experimental": "Another study was conducted in which the elastin and MMP activity of Compound 1 was evaluated. The methodology for the study of MMP-1 and MMP-3 activity was as follows: • A 0.1 g sample of Compound 1 was dissolved in 1 ml DMSO, then it was diluted 100× with Tris buffer (50 mM Iris pH 7.5, 150 mM NaCl, 2 mM CaCl2, 5μ ZnO4, 0.01% Brij-35) to make a stock solution. For the analysis, different concentrations of Compound 1 were used to determine the IC50. The sample and 100 ng/ml MMP-1 enzyme (Anaspec) or MMP-3 enzyme (Anaspec) were incubated at 37° C. for 10 minutes before the addition of 2.25 μM PEPDAB008 substrate (Biozyme). The fluorescence signal was monitored at excitation of 485 nm and emission of 530 nm."}},
  "note": "pIC50: −log10 of the molar value.",
  "data": [
    {"smiles": "COc1cc(CC(C(C)=O)C(C)=O)ccc1O", "note": "[Compound 1, Acetyl Zingerone]", "values": [
      {"measurement": "UVA/% Reduction in iCPDs vs. Control", "setting": "[1]; UVA", "result": 73, "unit": "%"},
      {"measurement": "UVB/% Reduction iCPDs vs. Control", "setting": "[1]; UVB", "result": 44, "unit": "%"},
      {"measurement": "Microarray, TNS2 gene expression", "setting": "[2]", "result": "+1.7"},
      {"measurement": "Microarray, VCAN gene expression", "setting": "[3]", "result": "+1.7"},
      {"measurement": "Microarray, ITGA4 gene expression", "setting": "[4]", "result": "+1.6"},
      {"measurement": "Microarray, TIMP2 gene expression", "setting": "[5]", "result": "+1.5"},
      {"measurement": "PCR array, COL5A1 gene expression", "setting": "[6]", "result": "+2.7"},
      {"measurement": "PCR array, ITGA1 gene expression", "setting": "[7]", "result": "+2.2"},
      {"measurement": "PCR array, ITGB3 gene expression", "setting": "[8]", "result": "+2.0"},
      {"measurement": "% Collagen 1 Bosting", "setting": "[9]; 50 μg/ml", "result": 118, "unit": "%"},
      {"measurement": "% Collagen 1 Bosting", "setting": "[9]; 100 μg/ml", "result": 173, "unit": "%"},
      {"measurement": "% Collagen 4 Boosting", "setting": "[10]; 50 μg/ml", "result": 145, "unit": "%"},
      {"measurement": "% Collagen 4 Boosting", "setting": "[10]; 100 μg/ml", "result": 245, "unit": "%"},
      {"measurement": "pIC50", "setting": "[11]", "result": 2.38}
    ]}
  ]
}
